Patent US9884063B2, “Amido-substituted azole compounds” (Bayer Pharma Aktiengesellschaft, priority 2014, dated 2018)

Tests used:
[1] = system: wildtype Wnt signaling cascade; experiment: HEK293 TOP Assay (Super TopFlash luciferase reporter, Wnt-3a stimulated); type: cell-based; settings: Homo sapiens, HEK293, 16 h, HEK293 TOP reporter cell line, Wnt-3a at EC50, 16 hours incubation, compound dilution series 50 μM to 15 nM
Procedure, shortened: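 HEK293 cells stably carrying Super TopFlash (TOP) or FOP reporter, stimulated with recombinant human Wnt-3a (2500–5 ng/ml, two-fold steps). Both lines incubated in parallel with compound from 50 μM to 15 nM (3.16-fold) in CAFTY buffer pH 7.4 with 2 mM Ca2+ and 0.01% BSA; selectivity judged TOP vs FOP.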

[2] = target: T1, TNKS2 (Homo sapiens, UniProt Q9H2K2); experiment: Modified TNKS2 Assay 2 (auto-parsylation, [3H]-NAD+ SPA); type: biochemical; settings: 6 nM TNKS2, 96 well
T1 sequence (Q9H2K2 1-1166): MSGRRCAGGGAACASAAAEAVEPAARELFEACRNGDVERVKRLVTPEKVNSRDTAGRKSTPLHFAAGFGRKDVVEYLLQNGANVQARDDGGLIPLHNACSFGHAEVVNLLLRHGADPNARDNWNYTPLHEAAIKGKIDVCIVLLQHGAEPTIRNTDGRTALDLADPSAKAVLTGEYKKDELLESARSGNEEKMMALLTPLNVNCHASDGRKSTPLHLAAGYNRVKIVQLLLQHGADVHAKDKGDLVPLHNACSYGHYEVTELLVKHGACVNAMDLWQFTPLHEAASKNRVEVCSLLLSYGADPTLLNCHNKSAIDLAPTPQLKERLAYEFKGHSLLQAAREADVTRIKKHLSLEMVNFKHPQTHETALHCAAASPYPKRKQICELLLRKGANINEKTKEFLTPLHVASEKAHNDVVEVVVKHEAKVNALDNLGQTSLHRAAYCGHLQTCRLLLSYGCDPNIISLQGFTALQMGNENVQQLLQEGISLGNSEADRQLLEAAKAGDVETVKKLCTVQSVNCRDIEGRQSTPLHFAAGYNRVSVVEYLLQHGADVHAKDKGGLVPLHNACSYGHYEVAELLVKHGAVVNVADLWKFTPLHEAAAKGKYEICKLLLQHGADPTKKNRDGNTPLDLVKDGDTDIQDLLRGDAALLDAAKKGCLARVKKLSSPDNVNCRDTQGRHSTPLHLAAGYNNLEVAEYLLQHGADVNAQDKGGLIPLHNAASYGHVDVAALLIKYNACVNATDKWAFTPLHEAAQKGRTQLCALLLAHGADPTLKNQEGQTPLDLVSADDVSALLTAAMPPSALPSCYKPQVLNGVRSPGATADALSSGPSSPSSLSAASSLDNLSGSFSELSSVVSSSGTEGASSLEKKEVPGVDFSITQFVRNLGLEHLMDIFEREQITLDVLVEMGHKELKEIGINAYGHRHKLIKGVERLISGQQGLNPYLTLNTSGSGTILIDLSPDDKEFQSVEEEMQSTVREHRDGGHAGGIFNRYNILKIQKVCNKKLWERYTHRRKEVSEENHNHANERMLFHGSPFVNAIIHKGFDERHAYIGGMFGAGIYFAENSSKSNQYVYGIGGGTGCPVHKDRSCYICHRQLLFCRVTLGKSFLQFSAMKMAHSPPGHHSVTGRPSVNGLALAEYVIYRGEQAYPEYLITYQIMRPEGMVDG

| Compound | IC50 [1] | IC50 [2] |
| --- | --- | --- |
| CNC(=O)c1nc[nH]c1C(=O)Nc1ccc(NC(=O)c2ccc(F)c(Cl)c2)cc1 [Example 340, N^5-{4-[(3-chloro-4-fluorobenzoyl)amino]phenyl}-N^4-methyl-1H-imidazole-4,5-dicarboxamide] | 3850 nM | > 10000 nM |
| CNC(=O)c1nc[nH]c1C(=O)Nc1ccc(NC(=O)c2c(C)cccc2Cl)cc1 [Example 343, N^5-{4-[(2-chloro-6-methylbenzoyl)amino]phenyl}-N^4-methyl-1H-imidazole-4,5-dicarboxamide] | 1450 nM | 1700 nM |
| CNC(=O)c1nc[nH]c1C(=O)Nc1ccc(NC(=O)c2ccc(C)c(Cl)c2)cc1 [Example 344, N^5-{4-[(3-chloro-4-methylbenzoyl)amino]phenyl}-N^4-methyl-1H-imidazole-4,5-dicarboxamide] | 27000 nM | > 10000 nM |
| CNC(=O)c1nc[nH]c1C(=O)Nc1ccc(NC(=O)c2cccc(Cl)n2)cc1 [Example 353, N^5-(4-{[(6-chloropyridin-2-yl)carbonyl]amino}phenyl)-N^4-methyl-1H-imidazole-4,5-dicarboxamide] | 50000 nM | > 10000 nM |
| CNC(=O)c1nc[nH]c1C(=O)Nc1ccc(NC(=O)c2ccc(F)c(Cl)c2F)cc1 [Example 359, N^5-{4-[(3-chloro-2,4-difluorobenzoyl)amino]phenyl}-N^4-methyl-1H-imidazole-4,5-dicarboxamide] | 8600 nM | > 10000 nM |
| CNC(=O)c1nc[nH]c1C(=O)Nc1ccc(NC(=O)c2cc(C)ccn2)cc1 [Example 363, N^4-methyl-N^5-(4-{[(4-methylpyridin-2-yl)carbonyl]amino}phenyl)-1H-imidazole-4,5-dicarboxamide] | 50000 nM | > 10000 nM |
| CNC(=O)c1nc[nH]c1C(=O)Nc1ccc(NC(=O)c2cc(F)ccc2OC)cc1 [Example 364, N^5-{4-[(5-fluoro-2-methoxybenzoyl)amino]phenyl}-N^4-methyl-1H-imidazole-4,5-dicarboxamide] | 50000 nM | 7900 nM |
| CNC(=O)c1nc[nH]c1C(=O)Nc1ccc(NC(=O)c2cncc(C)c2)cc1 [Example 366, N^4-methyl-N^5-(4-{[(5-methylpyridin-3-yl)carbonyl]amino}phenyl)-1H-imidazole-4,5-dicarboxamide] | 50000 nM | > 10000 nM |
| CNC(=O)c1nc[nH]c1C(=O)Nc1ccc(NC(=O)c2cccc(F)c2OC)cc1 [Example 367, N^5-{4-[(3-fluoro-2-methoxybenzoyl)amino]phenyl}-N^4-methyl-1H-imidazole-4,5-dicarboxamide] | 12400 nM | > 10000 nM |
| CNC(=O)c1nc[nH]c1C(=O)Nc1ccc(NC(=O)c2cccc(F)c2Cl)cc1 [Example 370, N^5-{4-[(2-chloro-3-fluorobenzoyl)amino]phenyl}-N^4-methyl-1H-imidazole-4,5-dicarboxamide] | 4950 nM | 2200 nM |
| CNC(=O)c1nc[nH]c1C(=O)Nc1ccc(NC(=O)c2nccnc2Cl)cc1 [Example 372, N^5-(4-{[(3-chloropyrazin-2-yl)carbonyl]amino}phenyl)-N^4-methyl-1H-imidazole-4,5-dicarboxamide] | 9700 nM | 4800 nM |
| CNC(=O)c1nc[nH]c1C(=O)Nc1ccc(NC(=O)c2c(F)ccc(F)c2Cl)cc1 [Example 374, N^5-{4-[(2-chloro-3,6-difluorobenzoyl)amino]phenyl}-N^4-methyl-1H-imidazole-4,5-dicarboxamide] | 1800 nM | 1300 nM |
| CNC(=O)c1nc[nH]c1C(=O)Nc1ccc(NC(=O)c2c(C)cccc2F)cc1 [Example 375, N^5-{4-[(2-fluoro-6-methylbenzoyl)amino]phenyl}-N^4-methyl-1H-imidazole-4,5-dicarboxamide] | 1120 nM | 1200 nM |
| CNC(=O)c1nc[nH]c1C(=O)Nc1ccc(NC(=O)c2ccon2)cc1 [Example 376, N^4-methyl-N^5-{4-[(1,2-oxazol-3-ylcarbonyl)amino]phenyl}-1H-imidazole-4,5-dicarboxamide] | 50000 nM | > 10000 nM |
| CNC(=O)c1nc[nH]c1C(=O)Nc1ccc(NC(=O)c2cc(F)c(F)cc2C)cc1 [Example 377, N^5-{4-[(4,5-difluoro-2-methylbenzoyl)amino]phenyl}-N^4-methyl-1H-imidazole-4,5-dicarboxamide] | 950 nM | 330 nM |
| O=C(Nc1ccc(NC(=O)c2[nH]cnc2C(=O)NCCc2ccccc2)cc1)c1ccc(F)cc1Cl [Example 384, N^5-{4-[(2-chloro-4-fluorobenzoyl)amino]phenyl}-N^4-(2-phenylethyl)-1H-imidazole-4,5-dicarboxamide] | 1900 nM | 1700 nM |
| O=C(Nc1ccc(NC(=O)c2[nH]cnc2C(=O)NCCc2ccccn2)cc1)c1ccc(F)cc1Cl [Example 387, N^5-{4-[(2-chloro-4-fluorobenzoyl)amino]phenyl}-N^4-[2-(pyridin-2-yl)ethyl]-1H-imidazole-4,5-dicarboxamide] | 800 nM | 150 nM |
| CCN(CC)CCCCNC(=O)c1nc[nH]c1C(=O)Nc1ccc(NC(=O)c2ccc(F)cc2Cl)cc1 [Example 393, N^5-{4-[(2-chloro-4-fluorobenzoyl)amino]phenyl}-N^4-[4-(diethylamino)butyl]-1H-imidazole-4,5-dicarboxamide] | 880 nM | 750 nM |

Next, values leading:

| IC50 [1] | IC50 [2] | Compound |
| --- | --- | --- |
| 800 nM | 540 nM | CNC(=O)c1nc[nH]c1C(=O)Nc1ccc(NC(=O)c2c(F)cc(F)cc2F)cc1 [Example 342, N^4-methyl-N^5-{4-[(2,4,6-trifluorobenzoyl)amino]phenyl}-1H-imidazole-4,5-dicarboxamide] |
| 720 nM | 2200 nM | CNC(=O)c1nc[nH]c1C(=O)Nc1ccc(NC(=O)c2cc(C#N)ccc2F)cc1 [Example 349, N^5-{4-[(5-cyano-2-fluorobenzoyl)amino]phenyl}-N^4-methyl-1H-imidazole-4,5-dicarboxamide] |
| 710 nM | 1300 nM | CNC(=O)c1nc[nH]c1C(=O)Nc1ccc(NC(=O)c2cc(C(F)(F)F)ccc2Cl)cc1 [Example 352, N^5-(4-{[2-chloro-5-(trifluoromethyl)benzoyl]amino}phenyl)-N^4-methyl-1H-imidazole-4,5-dicarboxamide] |
| 720 nM | 940 nM | CNC(=O)c1nc[nH]c1C(=O)Nc1ccc(NC(=O)c2ncccc2C)cc1 [Example 356, N^4-methyl-N^5-(4-{[(3-methylpyridin-2-yl)carbonyl]amino}phenyl)-1H-imidazole-4,5-dicarboxamide] |
| 260 nM | 100 nM | CNC(=O)c1nc[nH]c1C(=O)Nc1ccc(NC(=O)c2cc(F)ccc2Cl)cc1 [Example 361, N^5-{4-[(2-chloro-5-fluorobenzoyl)amino]phenyl}-N^4-methyl-1H-imidazole-4,5-dicarboxamide] |
| 80 nM | 20 nM | O=C(Nc1ccc(NC(=O)c2nc[nH]c2C(=O)NCCN2CCCCC2)cc1)c1ccccc1Cl [Example 381, N^4-{4-[(2-chlorobenzoyl)amino]phenyl}-N^5-[2-(piperidin-1-yl)ethyl]-1H-imidazole-4,5-dicarboxamide] |
| 750 nM | 280 nM | CC(C)N(CCNC(=O)c1nc[nH]c1C(=O)Nc1ccc(NC(=O)c2ccc(F)cc2Cl)cc1)C(C)C [Example 389, N^5-{4-[(2-chloro-4-fluorobenzoyl)amino]phenyl}-N^4-{2-[di(propan-2-yl)amino]ethyl}-1H-imidazole-4,5-dicarboxamide] |
| 670 nM | 450 nM | CC1(C)CC(NC(=O)c2nc[nH]c2C(=O)Nc2ccc(NC(=O)c3ccc(F)cc3Cl)cc2)CCO1 (stereo not drawn) [Example 391, N^5-{4-[(2-chloro-4-fluorobenzoyl)amino]phenyl}-N^4-(2,2-dimethyltetrahydro-2H-pyran-4-yl)-1H-imidazole-4,5-dicarboxamide] |
| 700 nM | 60 nM | O=C(Nc1ccc(NC(=O)c2[nH]cnc2C(=O)NCCc2ccncc2)cc1)c1ccc(F)cc1Cl [Example 394, N^5-{4-[(2-chloro-4-fluorobenzoyl)amino]phenyl}-N^4-[2-(pyridin-4-yl)ethyl]-1H-imidazole-4,5-dicarboxamide] |
